What was measured:
CD11b-positive cells = experiment: Ex.6 IL-1β induced diffuse white matter injury mouse model: microglial phenotype gene expression (qRT-PCR); type: in vivo
Experimental: Experimental protocols were approved by the institutional guidelines of the Institut National de la Santé et de la Recherche Scientifique (Inserm, France), and met the guidelines for the United States Public Health Service's Policy on Humane Care and Use of Laboratory Animals (NIH, Bethesda, Md., USA). Experiments were performed using OF1 strain mice purchased from Charles River (L'Arbresle, France) and born in our animal facility. Animals were housed under a 12 h light-dark cycle, had access to food and water ad libitum. Sex was determined at birth and confirmed at sacrifice. To avoid any potential variability linked to sex to differences. only male pups were used. Mice received twice a day from P1 to P4 and once on P5 a 5 μl intraperitoneal injection containing either PBS alone (sham group) or 10 μg/kg/dose recombinant mouse IL-1β in PBS. Vehicle group received only IL-1β injections while 10 μg E4 (5 mg/kg) or 20 μg E4 (10 mg/kg) was added to IL-1β once a day from P1 to P5 for E4 treated groups. Pups were sacrificed 3 hours after the first intraperitoneal injection at P1, 3 hours after last treatment at P5 or at P10 by intracardiac perfusion with NaCl 0.9% after anaesthesia by inhaled isoflurane.
At P1 and P5, brains were collected for cell dissociation and CD11b-positive (P1 and P5) and O4-positive (P5) cell enrichment using a magnetic coupled antibody extraction technique (MACS), as previously described and according to the manufacturer's protocol (Miltenyi Biotec, Bergisch Gladbach, Germany). The CD11b antigen is expressed on the surface of microglial cells while the O4 antigen is expressed on the cell surface of pre-OLs (Back et al., 2001). Briefly, after removing the cerebellum and olfactory bulbs, brains were pooled (n=3 at P1 and n=2 at P5) and dissociated using the neural tissue dissociation kit containing papain. From the resulting brain homogenate CD11b-positive cells (P1) and O4-positive then CD11b-positive cells (P5) were enriched by MACS, using the anti-CD11b or anti-O4 MicroBeads. After elution the isolated cells were centrifuged for 5 min at 600 g at 4° C. and conserved at −80° C.
Preparation of samples for quantitative reverse-transcriptase polymerase-chain reaction (qRT-PCR), primer design, and PCR protocol, were similar to that previously described (Favrais et al., 2011; Chhor et al., 2013). Briefly, RNA extraction was performed by with RNeasy mini kit according to the manufacturer's instructions (Qiagen, Courtaboeuf, France). RNA quality and concentration were assessed by spectrophotometry with the Nanodrop™ apparatus (Thermoscientific, Wilmington, Del., USA). Total RNA (0.5-1 μg) was subjected to reverse transcription using the iScript™ cDNA synthesis kit (Bio-Rad, Marnes-la-Coquette, France). qPCR was using SYBR Green Supermix (Bio-Rad). The relative expression of genes of interest (GOI) were expressed relative to expression of the reference gene, ribosomal protein L13a (Rpl13a) for CD11b+ cells and Glyceraldehyde 3-phosphate dehydrogenase (GAPDH) for O4+ cells and anterior brains based on reference gene suitability testing. Analyses were performed with the Biorad CFX manager 2.1 software. The relative quantities are expressed as the specific ratio between the gene of interest and Rpl13 or GAPDH. The data are presented as relative mRNA units with respect to control values (expressed as a fold-difference with respect to the mean of sham values).

[1] = tested on: intact cells in hippocampus and cortex; experiment: Ex.8 therapeutic HIE rat model: intact cell counting; type: in vivo
Experimental: To study the therapeutic effect of estetrol, newborn rat pups were assigned to one of the following 14 groups at postnatal day 7 (FIG. 23(B)): Sham group (n=12), Vehicle (n=15), 5 mg/kg/day E4 (n=11), 10 mg/kg/day E4 (n=11), 5 mg/kg/day E4+1.6 mg/kg/day PROG (n=11), 10 mg/kg/day E4+1.6 mg/kg/day PROG (n=11), 5 mg/kg/day E4+16 mg/kg/day PROG (n=11), 10 mg/kg/day E4+16 mg/kg/day PROG (n=13), 5 mg/kg/day E4+136 ng//kg/day E2 (n=11), 10 mg/kg/day E4+136 ng/kg/day E2 (n=11), 5 mg/kg/day E4+1.6 mg/kg/day PROG+136 ng/kg/day E2 (n=12), 10 mg/kg/day E4+1.6 mg/kg/day PROG+136 ng/kg/day E2 (n=11), 5 mg/kg/day E4+16 mg/kg/day PROG+136 ng/kg/day E2 (n=11), 10 mg/kg/day E4+16 mg/kg/day PROG+136 ng/kg/day (n=12) groups. […] After surgery, the pups were returned to their dams and allowed to recover for 1 hour. The pups were then placed in a humidified hypoxic in vivo cabinet (CoyLab). Hypoxia was produced by the inhalation of 11%-8% of oxygen balanced by nitrogen at decreased concentration of oxygen for 20 minutes, followed by inhalation of 8% oxygen and 92% nitrogen at constant concentration for 35 minutes. All the manipulations were performed at 37° C. Upon retrieval from the hypoxia chamber the rat pups were injected ip once either by vehicle (vehicle group) or by in accordance to the group assignment. The animals from the sham group went through similar procedures but proceeded neither left common carotid artery ligation and cut followed by hypoxia nor injections. Rat pups recovered with their dams until being sacrificed at postnatal day 14 (FIG. 24(B)). […]
Intact cell counting was performed on hematoxylin-eosin-stained sections of the rat pups brains at magnification 400× in 3 fields of the respective brain area. […] The sections were analyzed with the aid of a microscope (Olympus BX51, Olympus, Tokyo, Japan), an image scanner (DotSlide Digital Virtual Microscopy, Olympus, Germany) and ImageJ software (NIH, US). […]

[2] = IL-1β P1 to P5 + E4 10 mg/kg, P5
[3] = IL-1β+E4 5 mg/kg ip, P1, 3 h post-treatment, vs IL-1β group
[4] = IL-1β+E4 5 and 10 mg/kg ip, P1, vs IL-1β group

## C[C@]12CC[C@@H]3c4ccc(O)cc4CC[C@H]3[C@@H]1[C@@H](O)[C@@H](O)[C@@H]2O [E4, 1,3,5(10)-estratrien-3,15α,16α,17β-tetrol]
CD11b-positive cells; IL-1β P1 to P5 + E4 5 mg/kg, P5
  over-expression of IL1Rn (M2b): significantly limited
CD11b-positive cells; [2]
  inflammation induced over-expression of IL1Rn (M2b): prevented
  inflammation induced over-expression of IL4Ra (M2b): prevented
  inflammation induced over-expression of iNOS (M1): prevented
CD11b-positive cells; [3]
  expression of CD32 mRNA (M1): significantly down-regulated
  expression of CD86 mRNA (M1): significantly down-regulated
CD11b-positive cells; IL-1β+E4 10 mg/kg ip, P1
  expression of genes associated with the M2a repair/regeneration phenotype: non-significant trend to the up-regulation
CD11b-positive cells; IL-1β+E4 10 mg/kg ip, P1, vs IL-1β group
  expression of Ptgs2 mRNA (M1): significantly decreased
CD11b-positive cells; [4]
  expression of IL1RN (M2b): decreased
  expression of Sphk1 (M2b): decreased
  iNOS mRNA (M1): significantly decreased
[1]; 10 mg/kg/day E4, CA1
  number of intact cells: 57.30±5.19
[1]; 10 mg/kg/day E4, DG
  intact cell counting per visual field: 150.20±9.43
[1]; 10 mg/kg/day E4, cortex
  number of intact cells: 46.60±1.83

— US9808470B2, “Estrogenic components for use in the treatment of neurological disorders” (UNIVERSITE DE LIEGE, priority 2012, dated 2017)
